According to patent US20250360162A1, “Naphthoic Acid-Derived Polymers as Antimicrobial Agents” (UNIVERSITY OF SOUTH CAROLINA, priority 2024, published 2025):

Columns and labels:
MDR-K. pneumoniae = test: Resistance development study, serial passaging at sub-MIC; assay type: cell-based, Klebsiella pneumoniae; conditions: 14 passages over 2 weeks
Procedure: (§1) The resistance development study was performed following the protocol published earlier. […] To compare the result, the last-resort gram-negative antibiotics, Polymyxin-B, and carbapenem type, Imipenem, were used in the study. According to the protocol elaborated for the MIC assay above, the MIC values of compounds and antibiotics were determined against corresponding bacteria overnight. The next day, a new MIC assay was performed where the bacterial suspension was prepared from the bacteria grown at the sub-MIC (MIC/2) of compound concentration of the first-day experiment. The next 14 continuous passages were repeated as described above. The resistance development was calculated as the fold increase of MIC by dividing MIC to the initial MIC values of every passage and then plotted against the passage number. These experiments were performed in triplicate.
(§2) MDR bacteria employ various strategies inherently or adaptively to build up resistance, which becomes a serious health concern. […] Bacteria were exposed to continuous serial passaging at the sub-MIC level over 2 weeks. Antibiotics imipenem and polymyxin-B were used as controls.

MDR-P. aeruginosa = test: as above; assay type: cell-based, Pseudomonas aeruginosa; conditions: 14 passages over 2 weeks
Procedure: as §1, §2

[1] = test system: mouse red blood cells (RBCs)
Text: Hemolysis was given as HC50 where the concentration of a polymer causes 50% lysis of RBCs. […] RBC in PBS was used as the negative control to subtract any background signals.

[2] = test system: MDR-P. aeruginosa biofilm; test: Biofilm eradication, confocal fluorescence microscopy (SYTO 9/PI, Z-stack); assay type: cell-based, Pseudomonas aeruginosa
Procedure: (§3) 18 mm glass coverslips were sterilized with flame after rinsing with ethanol. The bacterial biofilms were grown by following the previously published protocol. After the preparation of mid-log grown MDR-P. aeruginosa bacteria in TSB media, bacteria concentration was adjusted in NB with 1% (w/v) glucose and 1% (w/v) NaCl supplements to ˜10^5 CFU/mL. 2 mL of the diluted bacterial cell culture was used to fill the 6-well plate and 18 mm sterilized glass coverslips were added to each well. The plate was incubated at 37° C. for 72 h. After 72 h, 1×PBS (pH=7.4) was used to wash away unadhered planktonic bacteria. The carefully washed coverslips containing surface-attached biofilms were placed into a new 6-well sterile plate. Later, various concentration of 1-QAC-Hex (2 mL) was added into the wells and incubated for 24 h. Polymyxin-B was used as a control antibiotic. As a negative control, 2 mL of media was added without compound. The following three experiments were adjusted in the further steps as follows.
Coverslips were washed with 1×PBS and left to dry for 2 min. MDR-P. aeruginosa biofilm was simultaneously stained with equal volumes of (5 μL) SYTO 9 (60 μM) and PI (15 μM) and was placed on the slide immediately followed by incubation in darkness for 15 min. The glass coverslips images on the slide were captured with a Zeiss LSM 410 Confocal Laser Scanning Microscope in 40× magnification. […]

[3] = test system: MDR-P. aeruginosa biofilm; test: Biofilm eradication, quantification through bacterial cell viability; assay type: cell-based, Pseudomonas aeruginosa; conditions: 16×MIC
Procedure: as §3
Once again, coverslips were washed with 1×PBS and transferred to another new, sterile plate. Afterward, 2 mL of trypsin-EDTA solution (diluted in saline at a 1:10 ratio) was added to each well and incubated for 15 min. Samples of 20 μL of each concentration were then 10-fold serially diluted in 1×PBS. […]

Compound | change in MIC after serial passaging (MDR-K. pneumoniae) [fold] | change in MIC after serial passaging (MDR-P. aeruginosa) [fold] | lysis of RBCs [1] [%] | thickness of biofilm ([2]; 16×MIC, control 9.96 μm) [μm] | live/dead cells in biofilm after treatment ([2]; polymyxin-B 16×MIC, 3-QAC-Hex 16×MIC and 32×MIC) | killing of viable bacteria within the biofilm, in words [3]
C[C@@H](O)[C@H]1C(=O)N2C(C(=O)O)=C(SCCN=CN)C[C@H]12 [imipenem] | 16 | 16 | – | – | – | –
Triton-X 100 | – | – | 100 | – | – | –
polymyxin-B | 16 | 8 | – | 9.03 | a large amount of live cells | unable to kill the viable bacteria protected within the biofilm
